Activity calls are given as the source filed them. The rule behind the calls is not given here.
Columns and labels:
[1] = tested on: WEHI; assay: Antiproliferative activity against mouse WEHI 164 cells after 96 hrs by MTT assay; assay type: functional, cell-based
[2] = tested on: J774; assay: Antiproliferative activity against mouse J774 cells after 96 hrs by MTT assay; assay type: cell-based; conditions: j774, 96 h

## Cc1cc[n+](C)cc1CCC(=O)[O-] [SULCATIN]
[1]
  Activity: Active
[2]
  Activity: Active

Source: ChEMBL document CHEMBL1154568, “Sulcatin, a novel antiproliferative N-methylpyridinium alkaloid from the ascidian Microcosmus vulgaris” (J Nat Prod, 2000)
